Molecular target: T1, MHC class I/SIINFEKL complex on DC2.4 (Mus musculus, UniProt P01901)
T1 construct: DC2.4 are a C57Bl/6 lineage murine cell line and as such they express MHC class I H-2Kb and H-2Db; endogenous in cells; host or cells: DC2.4 (murine dendritic cell line, from Dr. Kenneth Rock)
T1 sequence (P01901 22-369): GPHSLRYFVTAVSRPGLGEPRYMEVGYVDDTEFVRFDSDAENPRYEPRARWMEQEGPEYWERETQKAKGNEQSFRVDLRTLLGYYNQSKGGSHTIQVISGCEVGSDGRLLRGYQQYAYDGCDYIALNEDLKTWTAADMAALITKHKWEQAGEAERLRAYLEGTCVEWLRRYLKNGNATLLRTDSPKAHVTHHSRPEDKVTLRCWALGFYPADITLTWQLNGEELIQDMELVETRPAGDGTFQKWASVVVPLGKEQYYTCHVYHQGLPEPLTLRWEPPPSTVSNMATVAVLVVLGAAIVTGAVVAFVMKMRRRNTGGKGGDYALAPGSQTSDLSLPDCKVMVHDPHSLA
T1 sequence (P01887 21-119 partner): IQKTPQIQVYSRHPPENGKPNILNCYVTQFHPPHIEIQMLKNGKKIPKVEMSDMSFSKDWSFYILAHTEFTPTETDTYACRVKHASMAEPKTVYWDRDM
Test: SIINFEKL binding to DC2.4, flow cytometry with 25-D1.16 antibody
Assay type: cell-based, murine
Method: To detect binding of peptides to MHC class I H2Kb molecules on various murine cells, the cells were cultured as previously described and treated for various times as indicated in results and figure legends. Cells were centrifuged and washed using cold FACS buffer (DPBS with 5% FBS, 2 mM EDTA, 0.1% sodium azide). Cells were blocked using Fc block (bioLegend™; cat. no. 101320) for 10 min to 15 min to inhibit non-specific binding, followed by staining with fluorophore-conjugated antibody PE-labeled anti-MHC I/SIINFEKL (clone 25-D1.16; Invitrogen™, Thermo Fisher Scientific Inc., Waltham, MA; cat. no. 12-5743-82), for 30 min at 4° C. After washing, the cells were subjected to flow cytometric analysis with the Attune NxT Flow Cytometer (Invitrogen). Cells were gated based on live single-cell populations and positives were assessed using isotype controls and fluor-minus-one analysis when needed. Data were analyzed using the Attune NxT software or FlowJo versions 10.7 and 10.8.
To evaluate the potential of BzFβ to enhance peptide loading under conditions used to prepare DC vaccines, 1×10^6 DC2.4 cells were pretreated with 50 μg/mL BzFβ for 1 h in a total volume of 200 μL OptiMEM, then pulsed for 1 h with concentrations of SIINFEKL (1-10 μg/mL) often used for the in vitro production of DC vaccines. The cells were then stained for 30 min in 200 μL HBSS/2% FCS containing 0.4 μg PE-labeled MHC class I/SIINFEKL specific antibody, 25-D1.16.
By using an MHC class I H-2K^b specific antibody, a relative comparison of the surface MHC class I was measured before and after BzFβ treatment of DC2.4 and IMG cells. These cells were treated with 25 μg/mL BzFβ for 0-4 h. Cells were centrifuged and washed using cold FACS buffer (DPBS with 5% FBS, 2 mM EDTA, 0.1% sodium azide). […] Cells were gated based on live single-cell populations and positives were assessed using isotype controls and fluor-minus-one analysis when needed. Data were analyzed using the Attune NxT software or FlowJo versions 10.7 and 10.8.
Cultured cells were treated for various times as indicated in results and figure legends. […] Cells were gated based on live single-cell populations and positives were assessed using isotype controls and fluor-minus-one analysis when needed. Data were analyzed using the Attune NxT software or FlowJo versions 10.7 and 10.8.

O=C(O)/C=C/c1ccc2occc2c1 [BzFβ, (2E)-3-(1-benzofuran-5-yl)prop-2-enoic acid]
peptide binding under DC vaccine conditions (50 μg/mL BzFβ 1 h, then 1 h SIINFEKL 1-10 μg/mL): significant enhancement of peptide binding
SIINFEKL peptide binding to DC2.4 (25 or 50 μg/mL, up to 24 h): significantly enhance peptide binding
peptide detected per cell (2 h pretreatment 50 μg/mL BzFβ, then 1 h 1, 5 or 10 μg/mL SIINFEKL): significantly more peptide was detected per cell
binding of SIINFEKL to surface MHC class I (DC2.4, 25 μg/mL BzFβ 0-4 h): able to enhance the binding of SIINFEKL

From patent US20250381165A1, “Method of Use for Benzofuran Compounds” (Tampa Bay Research Institute, Inc., priority 2024, published 2025)
